From patent US4824937A, “Synthetic natriuretic peptides” (501 Advanced Peptide Development, Ltd., priority 1986, dated 1989)
Ends that are not written are not given here.

What was measured:
[1] = tested on: male normotensive Sprague-Dawley rats; assay: Diuretic activity: urine flow after i.v. bolus in anesthetized rats; type: in vivo, rat; conditions: 3.5 mcg/kg i.v. bolus; for URINE FLOW: 8 rats
Procedure: (§1) The diuretic activities of the synthetic natriuretic peptides (SNP) of this invention and their effects upon electrolyte excretion are determined in male normotensive Sprague-Dawley rats. The animals are anesthetized with sodium pentobarbital (55 mg/kg), the femoral vein is cannulated for injection of the test compound and for infusion of Ringer's solution, the bladder is cannulated for urine collection, and the trachea is cannulated to ensure a clean airway. The animals are infused with Ringer's solution at a rate of 1.2 ml/20 min. for 20 minutes, the infusion rate is then decreased to 1.2 ml/hour for a further 20 minutes, and urine collections are started at the end of that period. Three 10-minute collections are taken as control samples, and at the end of the third 10-minute period the SNP to be tested is injected as a bolus over 30 seconds into the femoral vein. Infusion of Ringer's solution at 1.2 ml/hour is continued for the duration of the experiment, and urine samples are collected every 10 minutes over 4 hours, their respective volumes are determined, and the concentrations of Na^+, Cl^-, and K^+ are measured using a NovaBiomedical electrolyte analyzer. The above determinations are done on samples pooled from all animals in a given experiment, and urine flow is calculated as ml/min./kg body weight while electrolyte concentrations are calculated as mmol/l/gm kidney tissue.
(§2) Details of the assay method are described above, and it remains only to be stated that 8 male normotensive Sprague-Dawley rats are used in each group. […] Urine flow then decreases sharply and is at control volumes at about 40 minutes where it remains until about 140 minutes.

[2] = tested on: male normotensive Sprague-Dawley rats; assay: Effects upon electrolyte excretion (Na+, K+, Cl- in urine) after i.v. bolus in anesthetized rats; type: in vivo, rat; conditions: 3.5 mcg/kg i.v. bolus; for ELECTROLYTE EXCRETION Cl^- / ELECTROLYTE EXCRETION K^+ / ELECTROLYTE EXCRETION Na^+: pooled urine of 8 rats
Procedure: as §1, §2

BG-3009: known ANP composed of 28 amino acid residues, identical with the ANP described by Flynn et al. (SLRRSSCFGGRIDRIGAQSGLGCNSFRY; not fully specified; ends and bridges not checked; UniProt P01161 123-150, looked up)
effect on urine flow, late phase (in words) ([1]; from 150 minutes (BG-3009: after 130 minutes) to the end of the experiment): hardly noticeable and may not be significant
effect on urine flow, early phase (in words) ([1]; from injection up to 130-140 minutes): shows similar effects up to 130 minutes
URINE FLOW ([1]; 10 min after injection): 333.7 ml./min./kg. body wt × 10^-3
URINE FLOW ([1]; 20 min after injection): 55.7 ml./min./kg. body wt × 10^-3
URINE FLOW ([1]; 30 min after injection): 23.3 ml./min./kg. body wt × 10^-3
URINE FLOW ([1]; 40 min after injection): 16.4 ml./min./kg. body wt × 10^-3
URINE FLOW ([1]; 50 min after injection): 16.9 ml./min./kg. body wt × 10^-3
URINE FLOW ([1]; 60 min after injection): 16.7 ml./min./kg. body wt × 10^-3
URINE FLOW ([1]; 70 min after injection): 16.4 ml./min./kg. body wt × 10^-3
URINE FLOW ([1]; 80 min after injection): 16.4 ml./min./kg. body wt × 10^-3
URINE FLOW ([1]; 90 min after injection): 15.2 ml./min./kg. body wt × 10^-3
URINE FLOW ([1]; 100 min after injection): 16.0 ml./min./kg. body wt × 10^-3
URINE FLOW ([1]; 110 min after injection): 17.2 ml./min./kg. body wt × 10^-3
URINE FLOW ([1]; 120 min after injection): 17.6 ml./min./kg. body wt × 10^-3
URINE FLOW ([1]; 130 min after injection): 23.4 ml./min./kg. body wt × 10^-3
URINE FLOW ([1]; 140 min after injection): 22.6 ml./min./kg. body wt × 10^-3
URINE FLOW ([1]; 150 min after injection): 21.4 ml./min./kg. body wt × 10^-3
URINE FLOW ([1]; 160 min after injection): 19.7 ml./min./kg. body wt × 10^-3
URINE FLOW ([1]; 170 min after injection): 19.9 ml./min./kg. body wt × 10^-3
URINE FLOW ([1]; 180 min after injection): 20.5 ml./min./kg. body wt × 10^-3
URINE FLOW ([1]; 190 min after injection): 22.3 ml./min./kg. body wt × 10^-3
URINE FLOW ([1]; 200 min after injection): 22.3 ml./min./kg. body wt × 10^-3
URINE FLOW ([1]; 210 min after injection): 20.7 ml./min./kg. body wt × 10^-3
URINE FLOW ([1]; 220 min after injection): 22.7 ml./min./kg. body wt × 10^-3
URINE FLOW ([1]; 230 min after injection): 28.6 ml./min./kg. body wt × 10^-3
URINE FLOW ([1]; 240 min after injection): 25.9 ml./min./kg. body wt × 10^-3
effect on Na^+ excretion, early phase (in words) [2]: sharp increases in Na^+ excretion for the first 30-40 minutes
effect on K^+ and Cl^- excretion (in words) ([2]; early phase): short-lasting decreases in K^+ and Cl^- excretion returning to control values after about 60 minutes
effect on Na^+ and Cl^- excretion, late phase (in words) ([2]; from about 140-160 minutes to 240 minutes): slight increase in Na^+ and Cl^- excretion
ELECTROLYTE EXCRETION Cl^- ([2]; 10 min after injection): 10.1 mmol/l./gm. kidney tissue
ELECTROLYTE EXCRETION K^+ ([2]; 10 min after injection): 1.5 mmol/l./gm. kidney tissue
ELECTROLYTE EXCRETION Na^+ ([2]; 10 min after injection): 10.0 mmol/l./gm. kidney tissue
ELECTROLYTE EXCRETION Cl^- ([2]; 20 min after injection): 12.8 mmol/l./gm. kidney tissue
ELECTROLYTE EXCRETION K^+ ([2]; 20 min after injection): 2.4 mmol/l./gm. kidney tissue
ELECTROLYTE EXCRETION Na^+ ([2]; 20 min after injection): 13.2 mmol/l./gm. kidney tissue
ELECTROLYTE EXCRETION Cl^- ([2]; 30 min after injection): 12.7 mmol/l./gm. kidney tissue
ELECTROLYTE EXCRETION K^+ ([2]; 30 min after injection): 4.9 mmol/l./gm. kidney tissue
ELECTROLYTE EXCRETION Na^+ ([2]; 30 min after injection): 12.4 mmol/l./gm. kidney tissue
ELECTROLYTE EXCRETION Cl^- ([2]; 40 min after injection): 13.0 mmol/l./gm. kidney tissue
ELECTROLYTE EXCRETION K^+ ([2]; 40 min after injection): 5.6 mmol/l./gm. kidney tissue
ELECTROLYTE EXCRETION Na^+ ([2]; 40 min after injection): 11.1 mmol/l./gm. kidney tissue
ELECTROLYTE EXCRETION Cl^- ([2]; 50 min after injection): 14.0 mmol/l./gm. kidney tissue
ELECTROLYTE EXCRETION K^+ ([2]; 50 min after injection): 6.6 mmol/l./gm. kidney tissue
ELECTROLYTE EXCRETION Na^+ ([2]; 50 min after injection): 8.8 mmol/l./gm. kidney tissue
ELECTROLYTE EXCRETION Cl^- ([2]; 60 min after injection): 13.5 mmol/l./gm. kidney tissue
ELECTROLYTE EXCRETION K^+ ([2]; 60 min after injection): 7.4 mmol/l./gm. kidney tissue
ELECTROLYTE EXCRETION Na^+ ([2]; 60 min after injection): 7.8 mmol/l./gm. kidney tissue
ELECTROLYTE EXCRETION Cl^- ([2]; 70 min after injection): 13.7 mmol/l./gm. kidney tissue
ELECTROLYTE EXCRETION K^+ ([2]; 70 min after injection): 7.7 mmol/l./gm. kidney tissue
ELECTROLYTE EXCRETION Na^+ ([2]; 70 min after injection): 7.1 mmol/l./gm. kidney tissue
ELECTROLYTE EXCRETION Cl^- ([2]; 80 min after injection): 13.0 mmol/l./gm. kidney tissue
ELECTROLYTE EXCRETION K^+ ([2]; 80 min after injection): 7.9 mmol/l./gm. kidney tissue
ELECTROLYTE EXCRETION Na^+ ([2]; 80 min after injection): 6.5 mmol/l./gm. kidney tissue
ELECTROLYTE EXCRETION Cl^- ([2]; 90 min after injection): 13.3 mmol/l./gm. kidney tissue
ELECTROLYTE EXCRETION K^+ ([2]; 90 min after injection): 8.0 mmol/l./gm. kidney tissue
ELECTROLYTE EXCRETION Na^+ ([2]; 90 min after injection): 6.4 mmol/l./gm. kidney tissue
ELECTROLYTE EXCRETION Cl^- ([2]; 100 min after injection): 13.3 mmol/l./gm. kidney tissue
ELECTROLYTE EXCRETION K^+ ([2]; 100 min after injection): 8.2 mmol/l./gm. kidney tissue
ELECTROLYTE EXCRETION Na^+ ([2]; 100 min after injection): 6.3 mmol/l./gm. kidney tissue
ELECTROLYTE EXCRETION Cl^- ([2]; 110 min after injection): 13.1 mmol/l./gm. kidney tissue
ELECTROLYTE EXCRETION K^+ ([2]; 110 min after injection): 8.2 mmol/l./gm. kidney tissue
ELECTROLYTE EXCRETION Na^+ ([2]; 110 min after injection): 6.5 mmol/l./gm. kidney tissue
ELECTROLYTE EXCRETION Cl^- ([2]; 120 min after injection): 13.7 mmol/l./gm. kidney tissue
ELECTROLYTE EXCRETION K^+ ([2]; 120 min after injection): 8.5 mmol/l./gm. kidney tissue
ELECTROLYTE EXCRETION Na^+ ([2]; 120 min after injection): 6.7 mmol/l./gm. kidney tissue
ELECTROLYTE EXCRETION Cl^- ([2]; 130 min after injection): 13.6 mmol/l./gm. kidney tissue
ELECTROLYTE EXCRETION K^+ ([2]; 130 min after injection): 8.6 mmol/l./gm. kidney tissue
ELECTROLYTE EXCRETION Na^+ ([2]; 130 min after injection): 6.6 mmol/l./gm. kidney tissue
ELECTROLYTE EXCRETION Cl^- ([2]; 140 min after injection): 14.8 mmol/l./gm. kidney tissue
ELECTROLYTE EXCRETION K^+ ([2]; 140 min after injection): 9.0 mmol/l./gm. kidney tissue
ELECTROLYTE EXCRETION Na^+ ([2]; 140 min after injection): 7.0 mmol/l./gm. kidney tissue
ELECTROLYTE EXCRETION Cl^- ([2]; 150 min after injection): 15.2 mmol/l./gm. kidney tissue
ELECTROLYTE EXCRETION K^+ ([2]; 150 min after injection): 9.4 mmol/l./gm. kidney tissue
ELECTROLYTE EXCRETION Na^+ ([2]; 150 min after injection): 7.3 mmol/l./gm. kidney tissue
ELECTROLYTE EXCRETION Cl^- ([2]; 160 min after injection): 14.2 mmol/l./gm. kidney tissue
ELECTROLYTE EXCRETION K^+ ([2]; 160 min after injection): 9.4 mmol/l./gm. kidney tissue
ELECTROLYTE EXCRETION Na^+ ([2]; 160 min after injection): 7.4 mmol/l./gm. kidney tissue
ELECTROLYTE EXCRETION Cl^- ([2]; 170 min after injection): 14.4 mmol/l./gm. kidney tissue
ELECTROLYTE EXCRETION K^+ ([2]; 170 min after injection): 9.2 mmol/l./gm. kidney tissue
ELECTROLYTE EXCRETION Na^+ ([2]; 170 min after injection): 7.7 mmol/l./gm. kidney tissue
ELECTROLYTE EXCRETION Cl^- ([2]; 180 min after injection): 14.8 mmol/l./gm. kidney tissue
ELECTROLYTE EXCRETION K^+ ([2]; 180 min after injection): 9.1 mmol/l./gm. kidney tissue
ELECTROLYTE EXCRETION Na^+ ([2]; 180 min after injection): 8.3 mmol/l./gm. kidney tissue
ELECTROLYTE EXCRETION Cl^- ([2]; 190 min after injection): 14.4 mmol/l./gm. kidney tissue
ELECTROLYTE EXCRETION K^+ ([2]; 190 min after injection): 8.7 mmol/l./gm. kidney tissue
ELECTROLYTE EXCRETION Na^+ ([2]; 190 min after injection): 8.7 mmol/l./gm. kidney tissue
ELECTROLYTE EXCRETION Cl^- ([2]; 200 min after injection): 14.7 mmol/l./gm. kidney tissue
ELECTROLYTE EXCRETION K^+ ([2]; 200 min after injection): 8.5 mmol/l./gm. kidney tissue
ELECTROLYTE EXCRETION Na^+ ([2]; 200 min after injection): 9.2 mmol/l./gm. kidney tissue
ELECTROLYTE EXCRETION Cl^- ([2]; 210 min after injection): 15.0 mmol/l./gm. kidney tissue
ELECTROLYTE EXCRETION K^+ ([2]; 210 min after injection): 8.4 mmol/l./gm. kidney tissue
ELECTROLYTE EXCRETION Na^+ ([2]; 210 min after injection): 9.6 mmol/l./gm. kidney tissue
ELECTROLYTE EXCRETION Cl^- ([2]; 220 min after injection): 15.3 mmol/l./gm. kidney tissue
ELECTROLYTE EXCRETION K^+ ([2]; 220 min after injection): 8.3 mmol/l./gm. kidney tissue
ELECTROLYTE EXCRETION Na^+ ([2]; 220 min after injection): 9.4 mmol/l./gm. kidney tissue
ELECTROLYTE EXCRETION Cl^- ([2]; 230 min after injection): 14.8 mmol/l./gm. kidney tissue
ELECTROLYTE EXCRETION K^+ ([2]; 230 min after injection): 8.3 mmol/l./gm. kidney tissue
ELECTROLYTE EXCRETION Na^+ ([2]; 230 min after injection): 9.2 mmol/l./gm. kidney tissue
ELECTROLYTE EXCRETION Cl^- ([2]; 240 min after injection): 15.7 mmol/l./gm. kidney tissue
ELECTROLYTE EXCRETION K^+ ([2]; 240 min after injection): 8.5 mmol/l./gm. kidney tissue
ELECTROLYTE EXCRETION Na^+ ([2]; 240 min after injection): 9.2 mmol/l./gm. kidney tissue
